Values quoted from earlier work, collected in patent US5013557A, “Taste masking compositions comprising spray dried microcapsules containing sucralfate and methods for preparing same” (Warner-Lambert Company, priority 1989, dated 1991).

Key:
[1] = pH values below about 3.5
[2] = sulfated disaccharide
[3] = system: ulcerated mucosa
[4] = system: mucosa
[5] = system: peptic ulcers; conditions: in vivo
[6] = system: pepsin; conditions: gel-like mass at ulcer site
[7] = system: EGF; conditions: in vivo

alpha-D-glucopyranoside, beta-D-fructofuranosyl-, octakis-(hydrogen sulfate), aluminum complex [sucralfate]
Coagulation / gel formation [1]: coagulates to form a gel-like mass | Absorption from the gastrointestinal tract [2]: not absorbed from the gastrointestinal tract | Affinity for ulcerated mucosa versus non-ulcerated mucosa [3]: greater affinity for ulcerated mucosa than for non-ulcerated mucosa | Morphological and functional changes in the mucosa [4]: mucus release, changes in ion transport and increased release and synthesis of prostaglandins | Healing of peptic ulcers [5]: accelerates the healing of peptic ulcers | Effect of protein barrier on bile salts and pepsin [6]: adsorbs bile salts and inhibits the potential ulcerogenic properties of pepsin | Effect of barrier on back diffusion of gastric acid (across the sucralfate protein barrier): blocks back diffusion of gastric acid | Effect of barrier on diffusion of hydrogen ions (protein barrier bound to ulcer site): blocks diffusion of hydrogen ions | EGF remaining in the stomach [7]: enable EGF to remain in the stomach at a high concentration
